The source of these data is patent US20200172473A1, “DUAL MODULATORS OF FARNESOID X RECEPTOR AND SOLUBLE EPOXIDE HYDROLASE” (JOHANN WOLFGANG GOETHE-UNIVERSITÄT FRANKFURT AM MAIN, priority 2017, published 2020).

For data set [1], the system named is related nuclear receptors (PPARs, LXRs, RXRs, RARs, PXR and VDR). Kind of data set: selectivity profile in Gal4-hybrid reporter gene assays (panel statement). It counts as cell-based, human. Particulars: except PPARγ. The text has this:
Hybrid reporter gene assays for PPARα/γ/δ, LXRα/β, RXRα/β/γ, RARα/β/γ, VDR and PXR Plasmids: The Gal4-fusion receptor plasmids pFA-CMV-hPPARα-LBD^52, pFA-CMV-hPPARγ-LBD^52, pFA-CMV-hPPARδ-LBD^52, pFA-CMV-hLXRα-LBD^32 and pFA-CMV-hLXRβ-LBD^32 have been reported previously. […] Frame and sequence of all fusion receptors were verified by sequencing. pFR-Luc (Stratagene) was used as reporter plasmid and pRL-SV40 (Promega) for normalization of transfection efficiency and cell growth.
Assay procedure: HEK293T cells were grown in DMEM high glucose, supplemented with 10% FCS, sodium pyruvate (1 mM), penicillin (100 U/mL) and streptomycin (100 μg/mL) at 37° C. and 5% CO2. The day before transfection, HEK293T cells were seeded in 96-well plates (2.5·10^4 cells/well). Before transfection, medium was changed to Opti-MEM without supplements. Transient transfection was carried out using Lipofectamine LTX reagent (Invitrogen) according to the manufacturer's protocol with pFR-Luc (Stratagene), pRL-SV40 (Promega) and pFA-CMV-hRXRα-LBD. 5 h after transfection, medium was changed to Opti-MEM supplemented with penicillin (100 U/mL), streptomycin (100 μg/mL), now additionally containing 0.1% DMSO and the respective test compound or 0.1% DMSO alone as untreated control. […] Luminescence was measured with an Infinite M200 luminometer (Tecan Deutschland GmbH). […]
(In a reporter assay the amount or activity of a reporter protein is the signal.)

A further data set deals with PPARγ target gene FATP. Briefly: PPARγ target gene FATP mRNA quantification from mouse livers. It counts as in vivo. To be noted: 10 mg/kg p.o., 8 h post dose; vehicle 101±1.
The nature of data set [2]: observation of animals in the pilot in vivo study. The arrangement: species or system mouse. Particulars: single oral dose 10 mg/kg body weight. As for the experimental part:
Animals and compound application: 9 male C57BL/6JRj mice (23-26 g body weight, purchased from Janvier Labs, France) were used in the present study. The animals were housed in a temperature-controlled room (20-24° C.) and maintained in a 12 h light/12 h dark cycle. Food and water were available ad libitum. The in life phase was performed by the contract research organization Pharmacelsus (Saarbrücken, Germany). All experimental procedures were approved by and conducted in accordance with the regulations of the local Animal Welfare authorities (Landesamt für Gesundheit und Verbraucherschutz, Abteilung Lebensmittel-und Veterinärwesen, Saarbrücken). Six animals received a single oral dose of 10 mg/kg body weight of dual modulator 57 in water containing 1% HPMC/Tween 80 (99:1). Three animals received the vehicle (water containing 1% HPMC/Tween 80 (99:1)).

On to `CC(C)(C)c1ccc(C(=O)NCc2ccc(NS(C)(=O)=O)cc2Cl)cc1` [compound 57, 4-(tert-Butyl)-N-(2-chloro-4-(methylsulfonamido)benzyl)benzamide], for which the “activity on related nuclear receptors” value in data set [1] was “inactive”. In the data set with PPARγ target gene FATP, the “FATP mRNA in mouse liver compared to vehicle set as 100%” value is “not affected”. Moreover, the “adverse effects in mice” value in data set [2] is reported as “no adverse effects”.
